Assay results taken from patent publication US4904819A, “Bicyclic sulfonamide derivatives and process therefor” (Shionogi & Co., Ltd., priority 1987, dated 1990).
pIC50: −log10 of the molar value.

Tested on: washed platelet
Test: Inhibition of platelet aggregation caused by collagen (washed platelet, aggregometer)
Type: cell-based, male rat (Sprague-Dowley)
Conditions: 0.05 h; platelet aggregating agent: collagen, 4 μg/ml final; rat washed platelet, 37° C.; measured 3 minutes after adding agent; read-out: Inhibition of Platelet Aggregation [50% Inhibitory Concentration]
Procedure: From the abdominal artery of a male rat (Sprague-Dowley, 8 weeks old) was collected 10 ml of blood with a syringe containing 1.5 ml of ACD (85 mM sodium citrate, 70 mM citric acid, 110 mM glucose) and 20 μg of prostaglandin E1. The blood is placed in a plastic test tube, mixed by moderate turning and centrifuged for 10 minutes at 160×g to give platelet rich plasma (PRP). To the prepared PRP was added apyrase (25 μg/ml) and the mixture was layered on 40% bovine serum albumin. The resulting mixture is centrifuged at 1200×g for 25 minutes. The platelet pellet suspended in a small amount of a buffer (137 mM NaCl, 2.7 mM KCl, 1.0 mM MgCl2, 3.8 mM NaH2 PO4, 3.8 mM Hepes, 5.6 mM glucose, 0.035% bovine serum albumin, pH 7.35) was applied on 10 ml of Sepharose 2B column and eluted with the buffer to prepare a washed platelet.
The platelet aggregation reaction was measured by an aggregometer (NKK HEMA TRACER 1 MODEL PAT-6A·6M, Niko bioscience). In a measuring cuvette was placed 245 μl of the washed platelet of which platelet number was adjusted to 5×10^5 /μl and set in the aggregometer. The washed platelet was stirred (1000 rpm) at 37° C. and 3.8 μl of 0.1M of CaCl2 was added thereto. One minutes after, 0.5 μl of a solution of test compound (dimethylsulfoxide solution) was added and 2 minutes after, 1 μl of Collagen reagent Horm® [HORMON-CHEMIE Munchen GMBH, final concentrate 4 μg/ml) as a platelet aggregating agent was added. The change in light transmittance caused by platelet aggregation was recorded against time elasped.
50% aggregation inhibitory rate was calculated from the aggregation inhibitory rate (which was measured 3 minutes after adding a platelet aggregating agent). The light transmittance for the washed platelet and the buffer were setted at 0% and 100%, respectively.

Row | pIC50 | SMILES
1 | 8.37 | CC1(C)[C@H]2C[C@H](C/C=C\CCCC(=O)O)[C@@H](NS(=O)(=O)c3ccc4ccccc4c3)[C@@H]1C2 [Compound 7b-m]
2 | 6.94 | CC1(C)C2CC(NCC(O)Cc3ccccc3)C(C/C=C\CCCC(=O)O)C1C2 (stereo not drawn) [ONO-11120, reference compound]
3 | 7.89 | CC1(C)[C@H]2C[C@H](C/C=C\CCCC(=O)O)[C@@H](NS(=O)(=O)CCc3ccccc3)[C@@H]1C2 [Compound 7b-p]
4 | 6.32 | CC1(C)[C@H]2C[C@H](C/C=C\CCCC(=O)O)[C@@H](NS(C)(=O)=O)[C@@H]1C2 [Compound 7b-n]
5 | 7.92 | CC1(C)[C@H]2C[C@H](C/C=C\CCCC(=O)O)[C@@H](NS(=O)(=O)CCCc3ccccc3)[C@@H]1C2 [Compound 7b-q]
6 | 8.00 | CC1(C)[C@H]2C[C@H](C/C=C\CCCC(=O)O)[C@@H](NS(=O)(=O)c3ccc(-c4ccccc4)cc3)[C@@H]1C2 [Compound 7b-l]
7 | 8.85 | CC1(C)[C@H]2C[C@H](C/C=C/CCCC(=O)O)[C@@H](NS(=O)(=O)c3ccccc3)[C@@H]1C2 [Compound 10b-a]
8 | 6.62 | CC1(C)[C@H]2C[C@H](C/C=C\CCCC(=O)O)[C@@H](NS(=O)(=O)Cc3ccccc3)[C@@H]1C2 [Compound 7b-o]
9 | 8.74 | CC1(C)[C@H]2C[C@H](C/C=C\CCCC(=O)O)[C@@H](NS(=O)(=O)c3ccc(O)cc3)[C@@H]1C2 [Compound 7b-k]
10 | 7.43 | CC1(C)[C@H]2C[C@@H](C/C=C\CCCC(=O)O)[C@@H](NS(=O)(=O)c3ccccc3)[C@@H]1C2 [Compound 7d-a]

Continued, compound first:

Row | SMILES | pIC50
11 | COc1ccc(S(=O)(=O)N[C@@H]2[C@@H](C/C=C\CCCC(=O)O)C[C@H]3C[C@@H]2C3(C)C)cc1 [Compound 7b-i] | 8.47
12 | CC1(C)[C@H]2C[C@H](C/C=C\CCCC(=O)O)[C@@H](NS(=O)(=O)c3ccccc3)[C@@H]1C2 [Compound 7b-a] | 9.15
13 | CC1(C)[C@H]2C[C@H](C/C=C\CCCC(=O)O)[C@@H](NS(=O)(=O)c3ccc([N+](=O)[O-])cc3)[C@@H]1C2 [Compound 7b-h] | 7.59
14 | Cc1ccc(S(=O)(=O)N[C@H]2[C@@H](C/C=C\CCCC(=O)O)C[C@H]3C[C@@H]2C3(C)C)cc1 [Compound 7a-b] | 6.94
15 | Cc1ccc(S(=O)(=O)N[C@@H]2[C@@H](C/C=C\CCCC(=O)O)C[C@H]3C[C@@H]2C3(C)C)cc1 [Compound 7b-b] | 8.77
16 | CC1(C)[C@H]2C[C@H](C/C=C\CCCC(=O)O)[C@H](NS(=O)(=O)c3ccccc3)[C@@H]1C2 [Compound 7a-a] | 7.96
17 | CCc1ccc(S(=O)(=O)N[C@@H]2[C@@H](C/C=C\CCCC(=O)O)C[C@H]3C[C@@H]2C3(C)C)cc1 [Compound 7b-g] | 8.00
18 | CC1(C)[C@H]2C[C@H](C/C=C\CCCC(=O)O)[C@@H](NS(=O)(=O)c3cccc(Cl)c3)[C@@H]1C2 [Compound 7b-f] | 8.89
19 | CC1(C)[C@H]2C[C@H](C/C=C\CCCC(=O)O)[C@@H](NS(=O)(=O)c3ccccc3Cl)[C@@H]1C2 [Compound 7b-e] | 8.19
20 | CC1(C)[C@H]2C[C@H](C/C=C\CCCC(=O)O)[C@@H](NS(=O)(=O)c3ccc(Cl)cc3)[C@@H]1C2 [Compound 7b-d] | 8.28

Tested on: platelet; smooth muscle of bronchi, and of coronary, cerebral and pulmonary arteries
Test: not given
Conditions: "it is said that"; prior art; cited from earlier work

Row | SMILES | concentration at which the strong action occurs
21 | CCCCC[C@H](O)/C=C/[C@H]1O[C@H]2C[C@H](O2)[C@@H]1C/C=C\CCCC(=O)O [thromboxane A2] | 10^-10 to 10^-11 M
